Strand notation (5' to 3'): a small letter for the sugar, then the base; units joined by * are phosphorothioate-linked, units joined directly phosphodiester-linked; [ ] holds rarer units or linkages, { } end groups; capitals alone tell only the bases. e = 2'-O-(2-methoxyethyl) (MOE); k = constrained ethyl (cEt); [5mC] = 5-methylcytosine; d = 2'-deoxy (DNA); m = 2'-O-methyl
System: Yap1 mRNA
Test: Antisense inhibition of human Yap1 in SNU-449 cells by modified oligonucleotides, single dose (Example 5, RTS36584)
Format: cell-based
Procedure, shortened: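 Plate SNU-449 cells at 10,000 per well; add 2,000 nM modified oligonucleotide without transfection reagent; after ~48 h isolate RNA, run qRT-PCR with RTS36584, normalise to RIBOGREEN and report % UTC.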

[1] = Table 46, Yap1 mRNA as percent of untreated control, SNU-449 cells, single dose
[2] = Table 40 (separate experiment), SNU-449 cells, 10,000 cells per well, free uptake, 2,000 nM oligonucleotide, approx. 48 hours, RTS36584, normalized to RIBOGREEN, Yap1 mRNA relative to untreated control
[3] = Table 52, Yap1 mRNA, modified oligonucleotides targeting SEQ ID NO: 1 and 2
[4] = Table 43 experiment, SNU-449 cells, 10,000 cells per well, free uptake, 2,000 nM, approximately 48 hours, RTS36584, Yap1 mRNA normalized to RIBOGREEN, relative to untreated control cells
[5] = Table 39, SNU-449 cells, 10,000 cells per well, free uptake, 2,000 nM oligonucleotide, approx. 48 hours, RTS36584, normalized to RIBOGREEN, Yap1 mRNA relative to untreated control
[6] = Table 45, Yap1 mRNA as percent of untreated control, SNU-449 cells, single dose
[7] = Table 41, SNU-449 cells, 10,000 cells per well, free uptake, 2,000 nM modified oligonucleotide, approximately 48 hours, RTS36584, normalized to RIBOGREEN, Yap1 mRNA relative to untreated control cells
[8] = Table 50, Yap1 mRNA remaining as percent of untreated control (UT), SNU-449 cells, single dose
[9] = Table 51, Yap1 mRNA remaining as percent of untreated control (UT), SNU-449 cells, single dose
[10] = Table 49, Yap1 mRNA level relative to untreated control, modified oligonucleotides targeting SEQ ID NO.: 1 and 2
[11] = Table 48, Yap1 mRNA level relative to untreated control, modified oligonucleotides targeting SEQ ID NO.: 1 and 2
[12] = Table 42 (separate experiment), SNU-449 cells, 10,000 cells per well, free uptake, 2,000 nM modified oligonucleotide, approximately 48 hours, RTS36584, normalized to RIBOGREEN, Yap1 mRNA relative to untreated control cells
[13] = Table 44 experiment, SNU-449 cells, 10,000 cells per well, free uptake, 2,000 nM, approximately 48 hours, RTS36584, Yap1 mRNA normalized to RIBOGREEN, relative to untreated control cells

In the case of “1198824 (kA*kG*dG*dT*dA*dT*dA*dA*d[5mC]*dT*dG*kG*eG*k[5mC]*eA*kA; antisense) [Compound 1198824]”, the “YAP1 (% UT)” value [1] is reported as 72 % UT.
“1198426 (kA*dA*d[5mC]*dT*d[5mC]*dT*dT*dA*dT*dA*dT*kG*eG*kT*eT*kT; antisense) [Compound 1198426]” was tested, and the “YAP1 (% UTC)” value [2] was 111 % UTC.
For “1200819 (kT*kT*kA*dA*dG*mC*dA*d[5mC]*dT*dT*dT*dT*dA*k[5mC]*kA*kT; antisense) [Compound 1200819]”, the “YAP1 (% UT)” value [3] was 101 % UT.
For “1095593 (antisense kT*kG*dA*dG*dG*dT*dA*dT*dA*dA*d[5mC]*eT*eG*eG*kG*k[5mC]) [Compound 1095593]”, the “YAP1 (% UTC)” value [4] was 16 % UTC.
For “1198411 (kA*dG*dG*dA*dT*dG*d[5mC]*dA*dT*dG*dG*kT*eT*kT*eT*kT; antisense) [Compound 1198411]”, the “YAP1 (% UTC)” value [5] was 33 % UTC.
For “1198963 (kT*kT*dA*dA*dA*dG*dT*dG*dT*dA*dT*kG*dT*k[5mC]*dA*kG; antisense) [Compound 1198963]”, the “YAP1 (% UTC)” value [6] was 27 % UTC.
With “1198656 (kG*k[5mC]*dA*d[5mC]*dT*dT*dT*dT*dA*d[5mC]*dA*dT*kT*eA*kG*eG; antisense) [Compound 1198656]” the “YAP1 (% UTC)” value [7] was 11 % UTC.
For “1198280 (kA*k[5mC]*dT*dA*dA*dG*dT*dA*dA*dG*dG*eT*eT*eT*k[5mC]*k[5mC]; antisense) [Compound 1198280]”, the “YAP1 (% UTC)” value [4] was 40 % UTC.
With “1200851 (kG*kT*kA*dA*dT*mA*dT*dT*dG*d[5mC]*dA*dA*dT*k[5mC]*kT*kG; antisense) [Compound 1200851]” the “YAP1 (% UT)” value [3] was 25 % UT.
“1198414 (kA*dT*dT*dT*dA*dG*dG*dA*dT*dG*d[5mC]*kA*eT*kG*eG*kT) [Compound 1198414]” was tested, and the “YAP1 (% UTC)” value [5] was 20 % UTC.
“1198604 (antisense kT*kA*kA*dT*dA*dT*dT*dG*d[5mC]*dA*dA*dT*k[5mC]*kT*kG*eT) [Compound 1198604]” was tested, and the “YAP1 (% UT)” value [8] was 48 % UT.
In the case of “1198840 (kG*k[5mC]*dT*dT*dT*dG*dG*dA*dA*dG*dA*kT*e[5mC]*kT*eG*kA; antisense) [Compound 1198840]”, the “YAP1 (% UT)” value [1] is reported as 26 % UT.
With “1197303 (k[5mC]*kT*kT*dA*mU*dA*dT*dG*dG*dT*dT*dT*dT*kG*kT*kG; antisense) [Compound 1197303]” the “YAP1 (% UT)” value [9] was 72 % UT.
In the case of “1198687 (antisense kA*kT*dT*dG*d[5mC]*dA*dA*dT*d[5mC]*dT*dG*dT*k[5mC]*eT*kG*eA) [Compound 1198687]”, the “YAP1 (% UTC)” value [7] is reported as 55 % UTC.
With “1198342 (kG*kA*k[5mC]*dA*dA*d[5mC]*dT*d[5mC]*dT*dT*dA*dT*kA*eT*kG*eG; antisense) [Compound 1198342]” the “YAP1 (% UT)” value [10] was 101 % UT.
“1198622 (kT*kA*kA*dG*dT*dA*dA*dG*dG*dT*dT*dT*k[5mC]*k[5mC]*k[5mC]*eA; antisense) [Compound 1198622]” was tested, and the “YAP1 (% UT)” value [8] was 26 % UT.
With “1198322 (kG*kT*kG*d[5mC]*dT*dT*dT*dG*dG*dA*dA*dG*kA*eT*k[5mC]*eT; antisense) [Compound 1198322]” the “YAP1 (% UT)” value [11] was 48 % UT.
For “1197255 (antisense kT*kT*kT*dA*mG*dG*dA*dT*dG*d[5mC]*dA*dT*dG*kG*kT*kT) [Compound 1197255]”, the “YAP1 (% UT)” value [9] was 38 % UT.
For “1200865 (kT*kA*kA*dG*dG*mU*dT*dT*d[5mC]*d[5mC]*d[5mC]*dA*dG*kA*kT*kT; antisense) [Compound 1200865]”, the “YAP1 (% UT)” value [3] was 54 % UT.
In the case of “1197270 (kT*kT*kA*dA*mA*dG*dT*dG*dT*dA*dT*dG*dT*k[5mC]*kA*kG) [Compound 1197270]”, the “YAP1 (% UT)” value [9] is reported as 2 % UT.
“1198681 (antisense T_{ks}C_{ks}T_{ds}T_{ds}A_{ds}T_{ds}A_{ds}T_{ds}G_{ds}G_{ds}T_{ds}T_{ds}T_{ks}T_{es}G_{ks}T_{e}; as printed in the source, key not given here) [Compound 1198681]” was tested, and the “YAP1 (% UTC)” value [12] was 54 % UTC.
“1198634 (kT*kG*dG*dA*dA*dA*dT*dT*dG*dT*d[5mC]*dT*k[5mC]*eA*kT*eG; antisense) [Compound 1198634]” was tested, and the “YAP1 (% UTC)” value [7] was 34 % UTC.
With “1198520 (kT*kG*dT*dA*dA*dT*dA*dT*dT*dG*d[5mC]*eA*kA*eT*k[5mC]*eT; antisense) [Compound 1198520]” the “YAP1 (% UTC)” value [13] was 51 % UTC.
In the case of “1198218 (kA*kG*dG*dT*dA*dT*dA*dA*d[5mC]*dT*dG*eG*eG*e[5mC]*kA*kA; antisense) [Compound 1198218]”, the “YAP1 (% UTC)” value [4] is reported as 40 % UTC.
“1197289 (kG*kG*kT*dA*mU*dA*dA*d[5mC]*dT*dG*dG*dG*d[5mC]*kA*kA*kA) [Compound 1197289]” was tested, and the “YAP1 (% UT)” value [9] was 48 % UT.
In the case of “1198739 (k[5mC]*eA*k[5mC]*dT*dG*dA*dG*dG*dT*dA*dT*dA*eA*e[5mC]*kT*kG; antisense) [Compound 1198739]”, the “YAP1 (% UTC)” value [7] is reported as 94 % UTC.
“1074799 (kT*kG*k[5mC]*dT*dT*dT*dG*dG*dA*dA*dG*dA*dT*k[5mC]*kT*kG) [Compound 1074799]” was tested, and the “YAP1 (% UT)” value (Yap1 mRNA, percent of untreated control, modified oligonucleotides targeting SEQ ID NO: 1 and 2, Table 47) was 21 % UT.
In the case of “1198748 (kA*eA*kG*d[5mC]*dA*d[5mC]*dT*dT*dT*dT*dA*d[5mC]*eA*eT*kT*kA; antisense) [Compound 1198748]”, the “YAP1 (% UTC)” value [2] is reported as 81 % UTC.
In the case of “1198364 (kT*kA*kA*dG*dT*dA*dA*dG*dG*dT*dT*dT*k[5mC]*e[5mC]*k[5mC]*eA; antisense) [Compound 1198364]”, the “YAP1 (% UT)” value [10] is reported as 29 % UT.
“1198513 (k[5mC]*kA*dA*d[5mC]*dT*d[5mC]*dT*dT*dA*dT*dA*eT*kG*eG*kT*eT; antisense) [Compound 1198513]” was tested, and the “YAP1 (% UTC)” value [13] was 63 % UTC.
With “1198202 (kG*kA*dA*dA*dT*dT*dG*dT*d[5mC]*dT*d[5mC]*eA*eT*eG*k[5mC]*k[5mC]; antisense) [Compound 1198202]” the “YAP1 (% UTC)” value [12] was 14 % UTC.
“1198551 (antisense kA*kG*kT*dA*dT*dG*dT*dG*dG*d[5mC]*dA*dA*kT*kA*kA*eT) [Compound 1198551]” was tested, and the “YAP1 (% UT)” value [10] was 34 % UT.
For “1198504 (kT*k[5mC]*dA*dG*dA*dT*dT*dT*dA*dG*dG*eA*kT*eG*k[5mC]*eA; antisense) [Compound 1198504]”, the “YAP1 (% UTC)” value [13] was 15 % UTC.
For “1198916 (kA*k[5mC]*dT*dT*dT*dT*dA*d[5mC]*dA*dT*dT*kA*dG*kG*dA*kA; antisense) [Compound 1198916]”, the “YAP1 (% UTC)” value [6] was 59 % UTC.
With “1198625 (kG*kA*k[5mC]*dT*dA*dA*dG*dT*dA*dA*dG*dG*kT*kT*kT*e[5mC]; antisense) [Compound 1198625]” the “YAP1 (% UT)” value [8] was 64 % UT.
In the case of “1198655 (k[5mC]*kA*d[5mC]*dT*dT*dT*dT*dA*d[5mC]*dA*dT*dT*kA*eG*kG*eA; antisense) [Compound 1198655]”, the “YAP1 (% UTC)” value [7] is reported as 30 % UTC.
For “1197266 (kT*kG*kT*dA*mA*dT*dA*dT*dT*dG*d[5mC]*dA*dA*kT*k[5mC]*kT) [Compound 1197266]”, the “YAP1 (% UT)” value [9] was 31 % UT.
“1200801 (kT*k[5mC]*kT*dA*dT*mA*dT*dT*dA*dG*dA*dG*dT*kA*kT*kG; antisense) [Compound 1200801]” was tested, and the “YAP1 (% UT)” value [9] was 77 % UT.
With “1198399 (kA*dG*d[5mC]*dA*d[5mC]*dT*dT*dT*dT*dA*d[5mC]*kA*eT*kT*eA*kG; antisense) [Compound 1198399]” the “YAP1 (% UTC)” value [5] was 35 % UTC.
In the case of “1198376 (kT*dG*dG*dA*dA*dA*dT*dT*dG*dT*d[5mC]*kT*e[5mC]*kA*eT*kG; antisense) [Compound 1198376]”, the “YAP1 (% UTC)” value [5] is reported as 36 % UTC.
“1200847 (kA*kT*kT*dG*d[5mC]*mA*dA*dT*d[5mC]*dT*dG*dT*d[5mC]*kT*kG*kA; antisense) [Compound 1200847]” was tested, and the “YAP1 (% UT)” value [3] was 54 % UT.
With “1198443 (kT*dT*dA*dA*dA*dG*dT*dG*dT*dA*dT*kG*eT*k[5mC]*eA*kG; antisense) [Compound 1198443]” the “YAP1 (% UTC)” value [2] was 39 % UTC.
In the case of “1198436 (kT*dA*dT*dG*dT*dA*dA*dT*dA*dT*dT*kG*e[5mC]*kA*eA*kT; antisense) [Compound 1198436]”, the “YAP1 (% UTC)” value [5] is reported as 69 % UTC.
With “1198236 (kG*kT*dG*d[5mC]*dT*dT*dT*dG*dG*dA*dA*eG*eA*eT*k[5mC]*kT) [Compound 1198236]” the “YAP1 (% UTC)” value [12] was 24 % UTC.
“1198971 (k[5mC]*kT*dA*dA*dG*dT*dA*dA*dG*dG*dT*kT*dT*k[5mC]*d[5mC]*k[5mC]; antisense) [Compound 1198971]” was tested, and the “YAP1 (% UTC)” value [6] was 31 % UTC.
For “1197253 (antisense kA*kG*kT*dG*mC*dT*dT*dT*dG*dG*dA*dA*dG*kA*kT*k[5mC]) [Compound 1197253]”, the “YAP1 (% UT)” value [9] was 58 % UT.
With “1198298 (kT*kA*kT*dT*dA*dG*dA*dG*dT*dA*dT*dG*kT*eG*kG*e[5mC]; antisense) [Compound 1198298]” the “YAP1 (% UT)” value [11] was 23 % UT.
With “1198319 (k[5mC]*kT*kT*dT*dG*dG*dA*dA*dG*dA*dT*d[5mC]*kT*eG*kA*eA; antisense) [Compound 1198319]” the “YAP1 (% UT)” value [11] was 47 % UT.

From patent publication US11214803B2, “Modulators of YAP1 expression” (Ionis Pharmaceuticals, Inc., priority 2019, dated 2022)
